From patent US6482850B2, “Hydrolysis-promoting hydrophobic taxane derivatives” (priority 1995, dated 2002)

Tests used:
[1] = test system: MCF-7/ADR (adriamycin-resistant); assay: In vitro sensitivity, sulforhodamine B cytotoxicity assay, MCF-7/ADR (Table 2); format: cell-based, human; details: 72-hour incubation; averaged from two separate experiments
[2] = test system: human MCF-7 breast carcinoma cells; assay: HTD cytotoxicity, growth inhibition of MCF-7 cells (Table 1); format: cell-based; details: MCF-7, 72-hour incubation; ± standard deviation
[3] = test system: MCF-7 human breast carcinoma; assay: In vitro sensitivity, sulforhodamine B cytotoxicity assay, MCF-7 (Table 2); format: cell-based; details: 72-hour incubation; averaged from two separate experiments
[4] = test system: HT-29 human colon carcinoma cells; assay: In vitro sensitivity, sulforhodamine B cytotoxicity assay, HT-29 (Table 2); format: cell-based; details: 72-hour incubation; averaged from two separate experiments
CDF1 female mice = assay: Acute toxicity of liposomal paclitaxel or paclitaxel derivative given intraperitoneally; details: liposomes, i.p.
Experimental: Moreover, liposomes containing either paclitaxel or a 2′-(2-bromo) hydrophobic paclitaxel derivative (containing either a six-carbon (C-6), C-8, C-12, C-14 or C-16 acyl chain at the 2′ position) were administered, intraperitoneally in 5 doses, to SCID (severe combined inimunodeficiency) mice bearing a human ovarian cancer (OvCar 3), at a dose of 12.5 mg paclitaxel per kg or a dose of 50 mg paclitaxel derivative per kg.
CDF1 female mice, 5 or 10 mice per group, were intraperitoneally administered either paclitaxel-, 2′-C6-paclitaxel derivative-, or 2′-C16-paclitaxel derivative-containing liposomes, in a single dose, or 5 doses, of either 12.5, 25, 50, 100, 200, 300. 400 or 500 mg of paclitaxel or paclitaxel derivative per kg of mouse body weight.

[5] = test system: A-549 human lung carcinoma; assay: In vitro sensitivity, sulforhodamine B cytotoxicity assay, A-549 (Table 2); format: cell-based; details: 72-hour incubation; averaged from two separate experiments
Experimental: Briefly, 96-well microtiter plates were inoculated (100 μL/well) with 5×10^3 (A549) or 7.5×10^3 (OVCAR-3) cells/well, in RPMI-1640 supplemented with 10% FBS (growth media). The plates were incubated for 24 hr at 37° C., 100% humidity and 5% CO2. At 24 hours, growth media (100 μL) was added to designated “time zero” plates. Similarly, serial dilutions of drug or vehicle (in media) were added (100 μL aliquots) to the test and vehicle control wells at twice the predetermined highest concentration. […] Cells (including time zero plates) were then fixed with 50 μL of 50% trichloroacetic acid (TCA) (w:v) for adherent cells or 80% TCA for suspended cells, and plates refrigerated at 4° C. for 1 hr. […] The plates were then air-dried for 24 hr.

| Compound | GI50 [1] [nM] | GI50 [2] [nM] | GI50 [3] [nM] | GI50 [4] [nM] | GI50 [5] [nM] | further results |
| --- | --- | --- | --- | --- | --- | --- |
| CCCCC(Br)C(=O)O[C@@H](C(=O)O[C@H]1C[C@@]2(O)[C@@H](OC(=O)c3ccccc3)[C@@H]3[C@]4(OC(C)=O)CO[C@@H]4C[C@H](O)[C@@]3(C)C(=O)[C@H](OC(C)=O)C(=C1C)C2(C)C)[C@@H](NC(=O)c1ccccc1)c1ccccc1 (mixture of isomers) [2′-2-Bromohexanoyl-, 2′-(R)-[(±)-2-Bromohexanoyl] taxol] | > 10000 | 3 ± 0.2 | 2.3 | 2.4 | 3.9 | number of mice that died within the first 14 days post-injection/total (CDF1 female mice; five doses of 50 mg/kg): 0/5; number of mice that died within the first 14 days post-injection/total (CDF1 female mice; single dose 200 mg/kg): 0/2; number of mice that died within the first 14 days post-injection/total (CDF1 female mice; single dose 300 mg/kg): 4/5; number of mice that died within the first 14 days post-injection/total (CDF1 female mice; single dose 400 mg/kg): 5/5; number of mice that died within the first 14 days post-injection/total (CDF1 female mice; single dose 500 mg/kg): 5/5 |
| CCCCCC(=O)OC(C(=O)OC1CC2(O)C(OC(=O)c3ccccc3)C3C4(OC(C)=O)COC4CC(OC(=O)CCCCC)C3(C)C(=O)C(OC(C)=O)C(=C1C)C2(C)C)C(NC(=O)c1ccccc1)c1ccccc1 (centres unmarked) [2′,7-diHexanoyl-] | – | > 10000 | – | – | – | – |
| CCCCCCC(Br)C(=O)O[C@@H](C(=O)O[C@H]1C[C@@]2(O)[C@@H](OC(=O)c3ccccc3)[C@@H]3[C@]4(OC(C)=O)CO[C@@H]4C[C@H](O)[C@@]3(C)C(=O)[C@H](OC(C)=O)C(=C1C)C2(C)C)[C@@H](NC(=O)c1ccccc1)c1ccccc1 (some centres unmarked) [2′-2-Bromo-C8-Paclitaxel, 2′-(2-bromocapryanoyl) paclitaxel] | > 10000 | – | 2.9 | 3.1 | 4.4 | – |
| CCCCCCCCCCC(Br)C(=O)OC(C(=O)OC1CC2(O)C(OC(=O)c3ccccc3)C3C4(OC(C)=O)COC4CC(O)C3(C)C(=O)C(OC(C)=O)C(=C1C)C2(C)C)C(NC(=O)c1ccccc1)c1ccccc1 (centres unmarked) [2′-2-Bromo-C12-Paclitaxel, 2′-(2 bromolauranoyl) paclitaxel] | > 10000 | – | 2.8 | 3.2 | 4.4 | – |
| CCCCCCCCCCCCC(Br)C(=O)OC(C(=O)OC1CC2(O)C(OC(=O)c3ccccc3)C3C4(OC(C)=O)COC4CC(O)C3(C)C(=O)C(OC(C)=O)C(=C1C)C2(C)C)C(NC(=O)c1ccccc1)c1ccccc1 (centres unmarked) [2′-2-Bromo-C14-Paclitaxel, 2′-(2 bromomyrstanoyl) paclitaxel] | > 10000 | – | 16 | 20.6 | 31.7 | – |
| CC(=O)OC1C(=O)C2(C)C(O)CC3OCC3(OC(C)=O)C2C(OC(=O)c2ccccc2)C2(O)CC(OC(=O)C(OC(=O)CCCCCBr)C(NC(=O)c3ccccc3)c3ccccc3)C(C)=C1C2(C)C (centres unmarked) [2′-6-Bromohexanoyl-] | – | > 10000 | – | – | – | – |
| CCCCCC(=O)OC1CC2OCC2(OC(C)=O)C2C(OC(=O)c3ccccc3)C3(O)CC(OC(=O)C(OC(C)=O)C(NC(=O)c4ccccc4)c4ccccc4)C(C)=C(C(OC(C)=O)C(=O)C12C)C3(C)C (centres unmarked) [2′-Acetyl-7-Hexanoyl-] | – | 4460 ± 60 | – | – | – | – |
| CCCCCC(=O)OC(C(=O)OC1CC2(O)C(OC(=O)c3ccccc3)C3C4(OC(C)=O)COC4CC(O)C3(C)C(=O)C(OC(C)=O)C(=C1C)C2(C)C)C(NC(=O)c1ccccc1)c1ccccc1 (centres unmarked) [2′-Hexanoyl-] | – | 500 ± 151 | – | – | – | – |
| CCCCC(Br)C(=O)OC1CC2OCC2(OC(C)=O)C2C(OC(=O)c3ccccc3)C3(O)CC(OC(=O)C(O)C(NC(=O)c4ccccc4)c4ccccc4)C(C)=C(C(OC(C)=O)C(=O)C12C)C3(C)C (centres unmarked) [7-2-Bromohexanoyl-] | – | 4.6 ± 0.1 | – | – | – | – |
| CC(=O)OC1C(=O)C2(C)C(OC(=O)CCCCCBr)CC3OCC3(OC(C)=O)C2C(OC(=O)c2ccccc2)C2(O)CC(OC(=O)C(O)C(NC(=O)c3ccccc3)c3ccccc3)C(C)=C1C2(C)C (centres unmarked) [7-6-Bromohexanoyl-] | – | 18 ± 2 | – | – | – | – |
| CCCCCC(=O)OC1CC2OCC2(OC(C)=O)C2C(OC(=O)c3ccccc3)C3(O)CC(OC(=O)C(O)C(NC(=O)c4ccccc4)c4ccccc4)C(C)=C(C(OC(C)=O)C(=O)C12C)C3(C)C (centres unmarked) [7-Hexanoyl-] | – | 27 ± 19 | – | – | – | – |
